According to US20080280810A1, “PEPTIDES HAVING AFFINITY FOR BODY SURFACES” (priority 2006, published 2008):

Experiments:
[1] = Co-application of multi-block peptide with semi-permanent dye (Arianor Ebony), color retention; design: species or system human; conditions: difference in Delta E between peptide sample and peptide free control after 3 embrocation cycles (about 12 manual shampoos); pH 8.5-9.0; >2 benefit, >4 substantial benefit
Procedure: A 0.5% aqueous solution of Arianor Ebony (Sensient Technologies Corp, Milwaukee, Wis.) containing 3% benzyl alcohol and 0.05% diazolidinyl urea (biocide) was prepared. Dye insolubles were removed by filtration and the pH of the dye solution was adjusted to 8.50-9.0, using ethanolamine.
Approximately 1 mL of the dye solution was added to selected wells of a 24-well plate (Thomson Instrument Co., Oceanside, Calif.; part # 931565). A multi-block peptide (see Table 12) was dissolved in a solution consisting of 3 wt % benzyl alcohol and 95 wt % water to yield a peptide concentration of 2 wt % or approximately 20 mg/mL. The pH was adjusted to 8.5-9.0 using ethanolamine. The peptide solution was then pipetted into test wells containing dye solution in the amount of 1 mL or 0.2 mL respectively. The total volume in each test well was then adjusted to 2 mL where necessary using 3% aqueous benzyl alcohol (pH adjusted to 8.5-9.0 with ethanolamine). Peptide free controls consisted of 1 mL of dye solution diluted to 2 mL with the pH adjusted aqueous benzyl alcohol solution.
Baseline […] readings were made on one inch long tresses (see below) using an X-RITE® SP78™ Sphere Spectrophotometer (X-Rite, Inc., Grandville, Mich.), by placing the hair tress into the photosensor and calculating L*, a* and b* parameters representing the photometer response. All measurements were the average of three individual determinations.
The tresses (potted on one end with resin) of natural white, 85% gray or regular bleached hair (International Hair Importers and Products, Bellerose, N.Y.) were immersed in the peptide/dye solution and the entire well plate was agitated on a VORTEX-GENIE® 2 Mixer (Scientific Industries, Bohemia, N.Y.) at a speed setting of 1 for 30 minutes. The tresses were removed from the wells, rinsed for 30 seconds under flowing deionized water and then air dried.
The following complement of beads was then added to each well containing a hair tress: (8 beads in all; 4 Novagen Coli Rollers Plating Beads—sterilized (EMD Biosciences, San Diego, Calif.; Catalog No. 71013), 2 BioSpec 6.35 mm glass beads (BioSpec Products, Bartlesville, Okla.; Catalog No. 11079635), and 2 BioSpec 3.2 mm Stainless Steel Bead (Catalog No. 11079132ss).
Then 2.5 mL of aqueous 50% Pantene Pro V® shampoo (Proctor & Gamble Co., Cincinnati, Ohio) was pipetted into each well. The plate was placed on a VWR® VX-2500 Multi-tube Vortexer (VWR, West Chester, Pa.) for 5 minutes to simulate shampooing with embrocation. The hair tresses were then rinsed under flowing deionized water and air dried. This cycle was repeated two more times except that the length of time was 10 minutes for both subsequent embrocation cycles. (This treatment was previously determined to simulate approximately 12 manual shampoo cycles.) At the conclusion of the third embrocation cycle L*, a* and b* values were measured and Delta E values (ΔE) were calculated using equation 1 below:
where L*=the lightness variable and a* and b* are the chromaticity coordinates of CIELAB colorspace as defined by the International Commission of Illumination (CIE) (Minolta, Precise Color Communication—Color Control From Feeling to Instrumentation, Minolta Camera Co., 1996).
The Delta E value (ΔE) indicates color retention relative to the non-dyed hair and larger Delta E values indicate better performance. Values listed in the table represent the difference in Delta E values between the peptide-containing sample and the peptide free control. This difference is indicative of color retention after shampoo or water rinse treatments and positive values indicate better performance relative to the peptide free controls (Table 12).

[2] = Color retention after shampoo treatment, peptide as sealant with HC Blue 26 dye; design: species or system human; conditions: 0.50 wt % HC Blue 26, peptide 0.25 wt %, 90 min contact, after 6 shampoo treatments; dye alone 25.75
Procedure: The peptides used in this Example were prepared as described in Examples 1 and 2. The color retention was quantified using a spectrophotometric measurement technique. A peptide given as SEQ ID NO:41 or SEQ ID NO:42 (38 mg), produced via fermentation as described in Examples 1 and 2, was added to 15 g of an aqueous 0.50 wt % solution of HC Blue 26 (Aldrich) and the solution was allowed to stir for 1 h. A natural white hair tress (1 cm wide, potted, International Hair Importers & Products Inc., Bellerose, N.Y.) was inserted into a 15 mm×125 mm test tube and 13 mL of the peptide/dye mixture was injected into the test tube. The hair tress was immersed in contact with the colorant solution for 90 min and the colorant solution was agitated using a magnetic stirrer. The tress was removed, allowed to drip dry, and then air dried for 30 min. The hair tress was then subjected to a water rinse using copious amounts of deionized water, followed by a shampoo treatment with embrocation for 30 seconds. The shampoo treatment involved the application of Pantene Pro-V Sheer Volume shampoo (Proctor & Gamble, Cincinnati, Ohio) to the hair as follows. […] The color intensity after the shampoo was measured as described in Examples 4-7.

Substance	ΔE Retention Ebony Dye with 85% Gray Hair [1]	Delta E [2]
P-EQISGSLVAAPW-KRKRK-D (PEQISGSLVAAPWKRKRKD; Peptide having affinity for hair) [HC 74]	7.5	30.36
P-TPPELLHGAPRS-KRKRK-D (PTPPELLHGAPRSKRKRKD; Peptide having affinity for hair) [HC 71]	2.9	27.83
